Experimental data as given in PubChem BioAssay (NCI).
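Step 1: Grow cells in 96-well plates. Step 2: Expose to compound for 48 hours at 5 concentrations. Step 3: Interpolate endpoints linearly; if unreached, use highest concentration. Definition used: TGI = concentration required for complete inhibition of growth.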

How the values were obtained:
Assay in all cases: growth of human tumour cells (NCI), 48 h
OVCAR-5 ovarian = system: OVCAR-5 ovarian
A498 renal = system: A498 renal
M14 melanoma = system: M14 melanoma
DU-145 prostate = system: DU-145 prostate
LOX IMVI melanoma = system: LOX IMVI melanoma
BT-549 breast = system: BT-549 breast
SNB-19 CNS = system: SNB-19 CNS
SK-MEL-2 melanoma = system: SK-MEL-2 melanoma
A549 NSCLC = system: A549 NSCLC
UACC-62 melanoma = system: UACC-62 melanoma
KM12 colon = system: KM12 colon
U251 CNS = system: U251 CNS
HCT-116 colon = system: HCT-116 colon
MCF7 breast = system: MCF7 breast
SK-MEL-5 melanoma = system: SK-MEL-5 melanoma
MDA-MB-435 = system: MDA-MB-435
RPMI-8226 leukemia = system: RPMI-8226 leukemia
TK-10 renal = system: TK-10 renal
T-47D breast = system: T-47D breast
UACC-257 melanoma = system: UACC-257 melanoma
K-562 leukemia = system: K-562 leukemia
HCC-2998 colon = system: HCC-2998 colon
SN12C renal = system: SN12C renal
HCT-15 colon = system: HCT-15 colon
MDA-N = system: MDA-N
NCI-H23 lung = system: NCI-H23 lung
SF-295 CNS = system: SF-295 CNS
PC-3 prostate = system: PC-3 prostate
CCRF-CEM leukemia = system: CCRF-CEM leukemia
NCI-H460 lung = system: NCI-H460 lung
UO-31 renal = system: UO-31 renal
OVCAR-4 ovarian = system: OVCAR-4 ovarian
NCI/ADR-RES ovarian = system: NCI/ADR-RES ovarian
SF-539 CNS = system: SF-539 CNS
NCI-H226 lung = system: NCI-H226 lung
786-0 renal = system: 786-0 renal
COLO 205 colon = system: COLO 205 colon
HT29 colon = system: HT29 colon
MDA-MB-231 breast = system: MDA-MB-231 breast
ACHN renal = system: ACHN renal
NCI-H522 lung = system: NCI-H522 lung
OVCAR-3 ovarian = system: OVCAR-3 ovarian
SNB-75 CNS = system: SNB-75 CNS
SK-OV-3 ovarian = system: SK-OV-3 ovarian
EKVX NSCLC = system: EKVX NSCLC
OVCAR-8 ovarian = system: OVCAR-8 ovarian
HL-60(TB) leukemia = system: HL-60(TB) leukemia
HS 578T breast = system: HS 578T breast
SF-268 CNS = system: SF-268 CNS
IGROV1 ovarian = system: IGROV1 ovarian
HOP-92 NSCLC = system: HOP-92 NSCLC
MOLT-4 leukemia = system: MOLT-4 leukemia
SK-MEL-28 melanoma = system: SK-MEL-28 melanoma
MALME-3M melanoma = system: MALME-3M melanoma
CAKI-1 renal = system: CAKI-1 renal
SW-620 colon = system: SW-620 colon
HOP-62 NSCLC = system: HOP-62 NSCLC
RXF 393 renal = system: RXF 393 renal
SR leukemia = system: SR leukemia

Measured: TGI

COc1ccc2c(c1O)-c1c(OC)c(OC)cc3c1[C@H](C2)[N+](C)(C)CC3
> 100 µM: OVCAR-5 ovarian | A498 renal | M14 melanoma | DU-145 prostate | LOX IMVI melanoma | BT-549 breast | SNB-19 CNS | SK-MEL-2 melanoma | A549 NSCLC | UACC-62 melanoma | KM12 colon | U251 CNS | HCT-116 colon | MCF7 breast | SK-MEL-5 melanoma | MDA-MB-435 | RPMI-8226 leukemia | TK-10 renal | T-47D breast | UACC-257 melanoma | K-562 leukemia | HCC-2998 colon | SN12C renal | HCT-15 colon | MDA-N | NCI-H23 lung | SF-295 CNS | PC-3 prostate | CCRF-CEM leukemia | NCI-H460 lung | UO-31 renal | OVCAR-4 ovarian | NCI/ADR-RES ovarian | SF-539 CNS | NCI-H226 lung | 786-0 renal | COLO 205 colon | HT29 colon | MDA-MB-231 breast | ACHN renal | NCI-H522 lung | OVCAR-3 ovarian | SNB-75 CNS | SK-OV-3 ovarian | EKVX NSCLC | OVCAR-8 ovarian | HL-60(TB) leukemia | HS 578T breast | SF-268 CNS | IGROV1 ovarian | HOP-92 NSCLC | MOLT-4 leukemia | SK-MEL-28 melanoma | MALME-3M melanoma | CAKI-1 renal | SW-620 colon

CN(C)CC1CCC/C(=C\c2ccc(N(C)C)cc2)C1=O (centres undefined)
29.4 µM: HCC-2998 colon
3.16 µM: LOX IMVI melanoma
65.3 µM: NCI/ADR-RES ovarian
33 µM: HOP-62 NSCLC
19.6 µM: MDA-N
9.79 µM: HOP-92 NSCLC
2.82 µM: MCF7 breast
22.3 µM: SK-MEL-2 melanoma
22.2 µM: UO-31 renal
26.3 µM: UACC-257 melanoma
3.21 µM: NCI-H522 lung
26 µM: HS 578T breast
28.5 µM: NCI-H460 lung
10.8 µM: 786-0 renal
3.3 µM: CAKI-1 renal
30.9 µM: A498 renal
4.96 µM: TK-10 renal
> 100 µM: RPMI-8226 leukemia | K-562 leukemia | CCRF-CEM leukemia | HL-60(TB) leukemia | MOLT-4 leukemia
9.36 µM: OVCAR-3 ovarian
17.4 µM: MDA-MB-435
4.11 µM: T-47D breast
6.65 µM: COLO 205 colon
31.4 µM: SK-MEL-5 melanoma
24.5 µM: MALME-3M melanoma
29.6 µM: SN12C renal
32.1 µM: A549 NSCLC
29.2 µM: UACC-62 melanoma
11.8 µM: IGROV1 ovarian
21.2 µM: RXF 393 renal
29.7 µM: BT-549 breast
30.4 µM: EKVX NSCLC
3.57 µM: SF-268 CNS
3.6 µM: HT29 colon
16.1 µM: HCT-15 colon
30.7 µM: U251 CNS | SNB-75 CNS
28.8 µM: SF-539 CNS
31.7 µM: SK-OV-3 ovarian
18 µM: OVCAR-8 ovarian
19.1 µM: SK-MEL-28 melanoma
26.9 µM: OVCAR-5 ovarian
31.9 µM: SNB-19 CNS
34 µM: DU-145 prostate | ACHN renal
4.4 µM: OVCAR-4 ovarian
9.46 µM: M14 melanoma
28.7 µM: NCI-H23 lung
64 µM: NCI-H226 lung
15.7 µM: MDA-MB-231 breast
3.29 µM: SW-620 colon
10.1 µM: HCT-116 colon
2.93 µM: KM12 colon
32.2 µM: SF-295 CNS | PC-3 prostate

COc1ccc2c(O)c3[n+](cc2c1OC)CCc1cc2c(cc1-3)OCO2
85.7 µM: RXF 393 renal
> 100 µM: OVCAR-5 ovarian | A498 renal | M14 melanoma | DU-145 prostate | LOX IMVI melanoma | BT-549 breast | SNB-19 CNS | SK-MEL-2 melanoma | A549 NSCLC | UACC-62 melanoma | KM12 colon | U251 CNS | HCT-116 colon | MCF7 breast | SK-MEL-5 melanoma | RPMI-8226 leukemia | TK-10 renal | T-47D breast | UACC-257 melanoma | K-562 leukemia | HCC-2998 colon | SN12C renal | HCT-15 colon | MDA-N | NCI-H23 lung | SF-295 CNS | PC-3 prostate | SR leukemia | CCRF-CEM leukemia | NCI-H460 lung | OVCAR-4 ovarian | NCI/ADR-RES ovarian | SF-539 CNS | NCI-H226 lung | COLO 205 colon | HT29 colon | MDA-MB-231 breast | HOP-62 NSCLC | ACHN renal | OVCAR-3 ovarian | SNB-75 CNS | SK-OV-3 ovarian | EKVX NSCLC | OVCAR-8 ovarian | HL-60(TB) leukemia | HS 578T breast | SF-268 CNS | IGROV1 ovarian | HOP-92 NSCLC | MOLT-4 leukemia | CAKI-1 renal | SW-620 colon
46 µM: NCI-H522 lung
69.3 µM: MDA-MB-435

COC(=O)OC[C@H]1O[C@@H](n2cc(C)c(=O)[nH]c2=O)CC1OC(=O)OC (some centres undefined)
> 100 µM: OVCAR-5 ovarian | A498 renal | M14 melanoma | DU-145 prostate | LOX IMVI melanoma | BT-549 breast | SNB-19 CNS | SK-MEL-2 melanoma | A549 NSCLC | UACC-62 melanoma | KM12 colon | U251 CNS | MCF7 breast | SK-MEL-5 melanoma | MDA-MB-435 | RPMI-8226 leukemia | TK-10 renal | T-47D breast | K-562 leukemia | HCC-2998 colon | SN12C renal | HCT-15 colon | MDA-N | NCI-H23 lung | SF-295 CNS | PC-3 prostate | SR leukemia | CCRF-CEM leukemia | NCI-H460 lung | UO-31 renal | OVCAR-4 ovarian | NCI/ADR-RES ovarian | SF-539 CNS | NCI-H226 lung | 786-0 renal | COLO 205 colon | HT29 colon | MDA-MB-231 breast | HOP-62 NSCLC | ACHN renal | NCI-H522 lung | OVCAR-3 ovarian | SNB-75 CNS | SK-OV-3 ovarian | RXF 393 renal | EKVX NSCLC | OVCAR-8 ovarian | HL-60(TB) leukemia | HS 578T breast | SF-268 CNS | IGROV1 ovarian | MOLT-4 leukemia | SK-MEL-28 melanoma | MALME-3M melanoma | SW-620 colon
